We go through 42 compounds from ChEMBL document CHEMBL1201862, “PubChem BioAssay data set” (2004).

Activity calls are given as the source filed them. Bounds are passed on as bounds.

Data set [1] is described as follows: inhibitors of intracellular T. cruzi replication, confirmation, NIH3T3 host cells, beta-gal luminescence (AID 2044).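 Note: intracellular parasites grown in NIH/3T3 mouse fibroblasts as host cells; luminescent beta-galactosidase reporter signal from transgenic T. cruzi replicating inside host cells; inhibitors lower the luminescence signal.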 Format: functional, cell-based.
Data set [2] is described as follows: cytotoxicity toward NIH3T3 fibroblasts, dose response, counter-screen, cell-based, ATP luminescence, mouse fibroblasts (AID 2010).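 Note: cells exposed to compound for about 90 hours before reading.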 Format: functional.
The target of another data set is Cytochrome P450 2C19 (Homo sapiens, UniProt P33261). The experiment in a line: Cytochrome panel assay with activity outcomes. Panel member name: p450-cyp2c19 Compounds with AC50 equal or less than 10 uM are considered active. Format: functional.
Cytochrome P450 2C19, sequence (P33261 whole entry): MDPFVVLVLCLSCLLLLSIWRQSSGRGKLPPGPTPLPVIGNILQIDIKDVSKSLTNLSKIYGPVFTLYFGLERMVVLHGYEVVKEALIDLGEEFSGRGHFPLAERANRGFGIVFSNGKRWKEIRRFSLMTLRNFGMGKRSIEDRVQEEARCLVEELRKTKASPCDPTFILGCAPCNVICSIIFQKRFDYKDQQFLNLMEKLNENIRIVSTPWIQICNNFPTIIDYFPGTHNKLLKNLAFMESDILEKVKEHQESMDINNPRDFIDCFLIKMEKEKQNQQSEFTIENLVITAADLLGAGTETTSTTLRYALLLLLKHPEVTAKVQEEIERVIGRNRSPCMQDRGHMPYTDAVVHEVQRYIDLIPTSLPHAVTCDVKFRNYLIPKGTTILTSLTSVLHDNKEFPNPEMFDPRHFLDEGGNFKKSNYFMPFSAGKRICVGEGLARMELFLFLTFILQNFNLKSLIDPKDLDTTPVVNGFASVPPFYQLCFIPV
The nature of data set [3]: Luminescence Cell-Based Dose Response HTS to Identify Activators of Luciferase Translation or Activity in H4 […] Cells. [Related pubchem assays: 1829 (Project Summary), 1814 (Primary HTS)]. Format: functional.
For another data set, the system named is H4. Briefly: Luminescence Cell-Based Dose Response HTS to Identify Activators of 5'UTR Stem-Loop Driven Prion Protein mRNA Translation in H4 Neuroglioblastoma Cells. [Related pubchem assays: 1829 (Project Summary), 1814 (Primary HTS)]. Format: functional. The conditions noted are these: Homo sapiens.
Data set [4] relates to Streptococcus sp. 'group A'. The experiment in a line: growth inhibition of control SK(-) GAS strain, dose response, counter-screen for streptokinase expression inhibitor project, luminescence, kanamycin, BacTiterGlo, confirmation (AID 1900). It counts as functional, organism-based.
A further data set deals with T1, Streptokinase A (Streptococcus pyogenes serotype M1, UniProt P10520).
T1 sequence (P10520 whole entry): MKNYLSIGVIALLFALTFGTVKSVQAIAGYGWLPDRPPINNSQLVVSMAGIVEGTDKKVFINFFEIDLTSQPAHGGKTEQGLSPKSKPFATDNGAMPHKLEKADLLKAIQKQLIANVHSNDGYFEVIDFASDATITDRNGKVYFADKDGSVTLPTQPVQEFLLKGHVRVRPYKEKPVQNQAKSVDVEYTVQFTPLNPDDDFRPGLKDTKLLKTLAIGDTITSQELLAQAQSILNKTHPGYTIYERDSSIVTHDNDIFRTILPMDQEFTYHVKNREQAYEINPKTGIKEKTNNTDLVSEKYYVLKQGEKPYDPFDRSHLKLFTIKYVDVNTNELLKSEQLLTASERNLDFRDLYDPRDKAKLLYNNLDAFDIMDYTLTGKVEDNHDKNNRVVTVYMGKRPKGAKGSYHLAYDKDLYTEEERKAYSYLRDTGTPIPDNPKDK
Briefly: S. pyogenes streptokinase expression inhibitors, potency, dose response, plasminogen activation absorbance, OD405 (AID 1914).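 Note: secreted streptokinase activity via plasminogen activation per viability signal from cell pellet.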 Format: functional, Streptococcus pyogenes M1 GAS.

A further data set deals with Streptococcus. Briefly: Group A Streptococcus viability loss, dose response, counter-screen for streptokinase expression inhibitor project, luminescence, BacTiterGlo (AID 1915).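 Note: potency for reduction of bacterial viability or growth.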 Format: functional, organism-based.
Data set [5] has as its target T2, Corticotropin-releasing factor receptor 2/Corticotropin-releasing factor-binding protein (Homo sapiens, UniProt P24387+Q13324).
T2 sequence (Q13324 whole entry): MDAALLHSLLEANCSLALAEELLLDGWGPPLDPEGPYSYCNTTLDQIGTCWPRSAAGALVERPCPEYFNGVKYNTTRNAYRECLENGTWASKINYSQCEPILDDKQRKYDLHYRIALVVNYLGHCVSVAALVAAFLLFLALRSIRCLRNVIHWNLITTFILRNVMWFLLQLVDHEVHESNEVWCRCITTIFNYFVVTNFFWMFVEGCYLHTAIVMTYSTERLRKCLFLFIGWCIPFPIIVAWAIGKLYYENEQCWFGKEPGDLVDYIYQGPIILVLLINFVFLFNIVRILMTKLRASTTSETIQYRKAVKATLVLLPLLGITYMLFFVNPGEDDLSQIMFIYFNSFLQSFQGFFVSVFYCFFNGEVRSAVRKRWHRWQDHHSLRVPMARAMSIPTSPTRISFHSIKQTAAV
T2 sequence (P24387 whole entry): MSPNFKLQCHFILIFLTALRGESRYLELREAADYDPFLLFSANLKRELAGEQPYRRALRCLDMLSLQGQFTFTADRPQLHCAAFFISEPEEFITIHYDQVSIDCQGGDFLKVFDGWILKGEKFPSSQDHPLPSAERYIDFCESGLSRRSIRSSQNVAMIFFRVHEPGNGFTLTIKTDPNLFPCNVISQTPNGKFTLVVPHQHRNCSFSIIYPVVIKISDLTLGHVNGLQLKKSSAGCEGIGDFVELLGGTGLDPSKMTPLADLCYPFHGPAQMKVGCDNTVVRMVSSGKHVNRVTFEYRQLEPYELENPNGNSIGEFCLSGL
The experiment in a line: activators of CRF receptor 2 with binding protein – uHTS hits, confirmation (AID 602473). Format: functional. The settings on record: read-out: EC50_Mean.

Consider `Cc1ccc(C)c(NC(=S)N2CCC(c3nc4ccccc4s3)CC2)c1`, for which the EC50 in data set [1] is 3.67 µM (active); in data set [2], > 30 µM (not active).

For `CCOC(=O)C1CN(S(=O)(=O)c2cccc(C(F)(F)F)c2)c2cc(CC(=O)OC)ccc2O1` (configuration not stated), the AC50 at Cytochrome P450 2C19 (read-out: AC50) was 0.282 µM (inconclusive).

For the compound `O=C(NCCc1ccccc1)C1=COCCO1`, the EC50 was 0.762 µM (active) in [3] and > 120 µM (not active) in the data set with H4.

Consider `O=C(Nc1nnc(C2=COCCO2)o1)c1cccc(F)c1`, for which the EC50 was 1.83 µM (active) in data set [4], > 150 µM (not active) at Streptokinase A and 19.6 µM (active) with Streptococcus.

`COc1ccc(C(C(=O)NC(C)(C)C)N(C(=O)CNC(=O)c2cccs2)c2ccc(C)cc2)cc1OC` (configuration not stated): the AC50 at Cytochrome P450 2C19 (read-out: AC50) was 17.8 µM (inconclusive).

Turning to `COc1ccc(CCN2CC(C(=O)NCCc3ccccn3)CCC2=O)cc1` (configuration not stated), the EC50 (in [4]; on Streptokinase A; in the data set on Streptococcus) was > 150 µM (not active) in each case.

Take `COc1cc(CN2CCCC(C(=O)c3ccccc3SC)C2)cc(OC)c1` (configuration not stated): the results for the EC50 in [1] and in [2] were 0.557 µM (active) and > 60 µM (not active), respectively.

Regarding `CCC[C@@H]1C[C@@]1(CCC)[C@@H](NP(=O)(c1ccccc1)c1ccccc1)c1ccc(C(=O)OC)cc1`, the EC50 in data set [4] is 5.5 µM (active); on Streptokinase A, > 150 µM (not active); in the data set on Streptococcus, 6.87 µM (active).

For `Cc1ccc(Cn2c(O)c(N=NC(S)=Nc3ccccc3F)c3ccccc32)cc1`, the figures for the EC50 in data set [1] and in data set [2] were 0.886 µM (active) and 17.4 µM (active), respectively.

On to `Nc1nc(Nc2ccc(Cl)cc2)nc(NCc2ccco2)c1[N+](=O)[O-]`, for which the values for the EC50 (in data set [4]; on Streptokinase A; in the data set with Streptococcus) were 7.12 µM (active), > 150 µM (not active) and 26.4 µM (inconclusive), respectively.

Regarding `Cc1ccc(-n2ncc(Cl)c2C(=O)NC2CC2)cc1`, in [3], the EC50 is 0.26 µM (active).

With `O=C(c1cc(-c2ccccc2)nc2ccccc12)N1CCN(c2ccccc2O)CC1`, the values for the EC50 (in [4]; on Streptokinase A; in the data set on Streptococcus) were 23.8 µM (active), 61.5 µM (active) and 61.7 µM (active), respectively.

Take `CCCc1nnc(NC(=O)Cn2cnc3ccccc3c2=O)s1`: the AC50 on Cytochrome P450 2C19 (read-out: AC50) is 25.1 µM (inconclusive).

As to `Cc1cccc(OCCCCc2c(C)n[nH]c2C)c1C`, the EC50 in data set [4] is 6.66 µM (active); with Streptococcus, 17 µM (active).

Consider `Cc1ccc(NC(=O)CCC(=O)NNS(=O)(=O)c2ccccc2)c(C)c1`, for which the AC50 at Cytochrome P450 2C19 (read-out: AC50) was 17.8 µM (inconclusive).

As to `CCn1ccnc1CN1CCc2c([nH]c3ccccc23)C1C1CCCCC1` (configuration not stated), the results for the EC50 (in [4]; on Streptokinase A; with Streptococcus) were 5.53 µM (active), 42.1 µM (active) and 29.3 µM (active), respectively.

`CN1/C(=C\C=C(/C#N)C(=O)Nc2ccc(Cl)cc2)C(C)(C)c2ccccc21`: the EC50 in data set [5] was 6.43 µM (active).

On to `O=C(NCc1ccccc1)C(=O)Nc1nc(-c2ccccc2)cs1`, for which the EC50 is 5.38 µM (active) in data set [4], > 150 µM (not active) on Streptokinase A and 14.1 µM (active) in the data set on Streptococcus.

With `N#Cc1c(N2CCOCC2)nc(N2CCCCC2)c2c1CCN(C1CCCCC1)C2`, the figures for the EC50 in [1] and in [2] were 0.251 µM (active) and > 30 µM (not active), respectively.

`COc1ccc(N2C(=O)/C(=C\NNS(=O)(=O)c3cc(C)ccc3C)c3ccccc3C2=O)cc1OC`: the EC50 in [5] was 15.5 µM (active).

As to `CCN(CC)CCN(C(=O)CCS(=O)(=O)c1ccccc1)c1nc2cc3c(cc2s1)OCO3`, the EC50 in data set [1] was 0.794 µM (active); in data set [2], > 60 µM (not active).

In the case of `CCN(CC)c1ccc(NC(=O)c2c(C)noc2C)cc1`, the EC50 (in data set [4]; on Streptokinase A; in the data set with Streptococcus) was > 150 µM (not active) in each case.

`Nc1ccc(-c2nc3nc(N)nc(N)c3nc2-c2ccc(N)cc2)cc1`: the EC50 in data set [4] was 2.94 µM (active); at Streptokinase A it was > 150 µM (not active); in the data set with Streptococcus it was > 150 µM (not active).

For `Cc1oc(-c2ccc(F)cc2)nc1CN(Cc1ccccn1)CC1CCCO1` (configuration not stated), the EC50 in [4] was 30.4 µM (active); on Streptokinase A it was > 150 µM (not active); with Streptococcus, > 150 µM (not active).

For `CN(C)CCCN(C(=O)CCc1ccccc1)c1nc2c(F)cccc2s1`, the EC50 in data set [1] was 0.819 µM (active); in data set [2], > 30 µM (not active).

On to `CCOc1ccc(NC(=O)CC2C(=O)N(C)C(=S)N2CCCc2ccccc2)cc1` (configuration not stated), for which the values for the EC50 in data set [1] and in [2] were 2.4 µM (active) and > 60 µM (not active), respectively.

`COc1ccccc1CN1CC(C(=O)NCc2ncccc2C)CCC1=O` (configuration not stated): the EC50 (in [4]; on Streptokinase A; with Streptococcus) was > 150 µM (not active) throughout.

For `Cc1cccc(OCC(=O)Nc2ccc(C(=O)Nc3ccccc3C(=O)O)cc2)c1C`, the EC50 was 6.06 µM (active) in [4], > 150 µM (not active) at Streptokinase A and > 150 µM (not active) with Streptococcus.

Turning to `CCN(CC)c1ccc(C2Nc3cccc4cccc(c34)N2)cc1`, the EC50 in [3] is 16.8 µM (active); in the data set with H4, 27.2 µM (active).

As to `Cc1c(Br)c([N+](=O)[O-])nn1CC(=O)NCc1ccccn1`, the AC50 entry at Cytochrome P450 2C19 was “inconclusive”.

In the case of `CO[C@@H]1COC(=O)[C@H]2CCCN2C(=O)C/C=C\[C@@H](C)[C@H](OC)COC(=O)[C@H]2CCCN2C(=O)C/C=C\[C@H]1C`, the AC50 result on Cytochrome P450 2C19 is “inconclusive”.

Consider `CCOC(=O)c1cn2nc(Oc3ccccc3)ccc2n1`, for which the values for the EC50 (in [3]; in the data set with H4) were 7.96 µM (active) and > 120 µM (not active), respectively.

Regarding `O=C(O)CCCCCCCCc1cn(Cc2ccc(C(=O)c3ccccc3)cc2)nn1`, the values for the EC50 in data set [1] and in data set [2] were > 60 µM (not active) and 6.22 µM (active), respectively.

For `Cc1ccccc1-c1cc(-c2ccccc2O)[nH]n1`, the figures for the EC50 (in [4]; in the data set with Streptococcus) were 9.25 µM (active) and > 150 µM (not active), respectively.

Turning to `Cc1ccccc1-c1cc(-c2ccccc2O)n[nH]1`, on Streptokinase A, the EC50 is 66.2 µM (inconclusive).

`CCCC(=O)Nc1sc2c(c1C#N)CCCCC2`: the EC50 was 0.102 µM (active) in data set [3] and > 120 µM (not active) in the data set with H4.

Consider `Cc1[nH]c(-c2ccc(F)cc2)cc1C(=O)N1CCN(c2cccc(Cl)c2)CC1`, for which the EC50 is 3.8 µM (active) in data set [4], > 150 µM (not active) on Streptokinase A and 11.8 µM (active) with Streptococcus.

As for `CN(C)c1ccc(/C=C/c2c([N+](=O)[O-])c(=O)n(C)c(=O)n2C)cc1`, the EC50 in data set [4] was 5.75 µM (active); on Streptokinase A, > 150 µM (not active); in the data set on Streptococcus it was 18.3 µM (active).

For `CC(C)Cn1c(=O)c(C(=O)N/N=C/c2cccc(F)c2)c(O)c2ccccc21`, the EC50 in data set [4] is 1.28 µM (active); with Streptococcus it was 3.69 µM (active).

As to `O=C(N/N=C/c1ccc(OCc2ccccc2)cc1)c1ccncc1`, the EC50 in data set [3] was 17.7 µM (active); in the data set with H4, 19.3 µM (active).

For `CSc1ccc(/C=N/n2c(C)cc(C)cc2=O)cc1`, the EC50 in data set [3] was 18.2 µM (active); in the data set with H4, 7.91 µM (active).

Consider `C/N=C(N)/N=C(\N)Nc1cc2ccccc2c2ccccc12`, for which the AC50 on Cytochrome P450 2C19 (read-out: AC50) is 3.98 µM (inconclusive).
